In patent US20200017495A1, “NOVEL HETEROCYCLIC COMPOUNDS AND THEIR USE IN PREVENTING OR TREATING BACTERIAL INFECTIONS” (priority 2017, published 2020):

System: Escherichia coli (ECO) isolates
Experiment: MIC of compounds alone and combined with antibacterials, broth microdilution (CLSI)
Type: cell-based
Procedure, shortened: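 Broth microdilution in cation-adjusted Mueller-Hinton broth, inoculum 5.10^5 CFU/mL, 16-20 h at 35° C in ambient air, on genotyped isolates. Compound MIC, alone or with an antibacterial, taken visually as lowest concentration preventing growth; antibacterial MIC determined at each compound concentration.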

`C=CC1=C(C(=O)O)N2C(=O)[C@@H](NC(=O)/C(=N\OCC(=O)O)c3csc(N)n3)[C@H]2SC1` [FIX, Cefixime] was tested, and the “MIC ATB in combination” value (ECO UFR16, AF3 @ 8 μg/mL) was less than 0.25 µg/mL, the “MIC ATB in combination” value (ECO UFR16, CLA @ 4 μg/mL) was 4 µg/mL and the “MIC ATB in combination” value (ECO UFR17, AF2 @ 8 μg/mL) was greater than 128 µg/mL. For the same compound, the “MIC ATB in combination” value (ECO UFR17, AF3 @ 8 μg/mL) was greater than 128 µg/mL, the “MIC ATB in combination” value (ECO UFR17, CLA @ 4 μg/mL) was greater than 128 µg/mL and the “MIC ATB in combination” value (ECO UFR18, AF2 @ 8 μg/mL) was less than 0.25 µg/mL. The “MIC ATB in combination” value (ECO UFR18, AF3 @ 8 μg/mL) was less than 0.25 µg/mL, the “MIC ATB in combination” value (ECO UFR18, CLA @ 4 μg/mL) was greater than 128 µg/mL and the “MIC ATB in combination” value (ECO UFR19, AF2 @ 8 μg/mL) was less than 0.25 µg/mL. The “MIC ATB in combination” value (ECO UFR19, AF3 @ 8 μg/mL) was less than 0.25 µg/mL, the “MIC ATB in combination” value (ECO UFR19, CLA @ 4 μg/mL) was greater than 128 µg/mL and the “MIC ATB in combination” value (ECO UFR32, AF2 @ 8 μg/mL) was less than 0.25 µg/mL. The “MIC ATB in combination” value (ECO UFR32, AF3 @ 8 μg/mL) was less than 0.25 µg/mL, the “MIC ATB in combination” value (ECO UFR32, CLA @ 4 μg/mL) was 1 µg/mL and the “MIC ATB in combination” value (ECO UFR39, AF2 @ 8 μg/mL) was less than 0.25 µg/mL. The “MIC ATB in combination” value (ECO UFR39, AF3 @ 8 μg/mL) was less than 0.25 µg/mL, the “MIC ATB in combination” value (ECO UFR39, CLA @ 4 μg/mL) was greater than 128 µg/mL and the “MIC ATB in combination” value (ECO UFR41, AF2 @ 8 μg/mL) was less than 0.25 µg/mL. For the same compound, the “MIC ATB in combination” value (ECO UFR41, AF3 @ 8 μg/mL) was less than 0.25 µg/mL, the “MIC ATB in combination” value (ECO UFR41, CLA @ 4 μg/mL) was greater than 128 µg/mL and the “MIC ATB in combination” value (ECO UFR45, AF2 @ 8 μg/mL) was less than 0.25 µg/mL. The “MIC ATB in combination” value (ECO UFR45, AF3 @ 8 μg/mL) was less than 0.25 µg/mL, the “MIC ATB in combination” value (ECO UFR45, CLA @ 4 μg/mL) was 32 µg/mL and the “MIC ATB in combination” value (ECO UFR52, AF2 @ 8 μg/mL) was greater than 128 µg/mL. For the same compound, the “MIC ATB in combination” value (ECO UFR52, AF3 @ 8 μg/mL) was greater than 128 µg/mL, the “MIC ATB in combination” value (ECO UFR52, CLA @ 4 μg/mL) was greater than 128 µg/mL and the “MIC ATB in combination” value (ECO UFR61O, AF2 @ 8 μg/mL) was “<=0.25 μg/mL”. The “MIC ATB in combination” value (ECO UFR61O, AF3 @ 8 μg/mL) was less than 0.25 µg/mL, the “MIC ATB in combination” value (ECO UFR61O, CLA @ 4 μg/mL) was 32 µg/mL and the “MIC ATB in combination” value (ECO UFR62, AF2 @ 8 μg/mL) was less than 0.25 µg/mL. For the same compound, the “MIC ATB in combination” value (ECO UFR62, AF3 @ 8 μg/mL) was less than 0.25 µg/mL, the “MIC ATB in combination” value (ECO UFR62, CLA @ 4 μg/mL) was 32 µg/mL and the “MIC ATB in combination” value (ECO UFR74, AF2 @ 8 μg/mL) was less than 0.25 µg/mL. For the same compound, the “MIC ATB in combination” value (ECO UFR74, AF3 @ 8 μg/mL) was less than 0.25 µg/mL, the “MIC ATB in combination” value (ECO UFR74, CLA @ 4 μg/mL) was greater than 128 µg/mL and the “MIC ATB in combination” value (ECO UFR86, AF2 @ 8 μg/mL) was 0.5 µg/mL. The “MIC ATB in combination” value (ECO UFR86, AF3 @ 8 μg/mL) was 0.5 µg/mL, the “MIC ATB in combination” value (ECO UFR86, CLA @ 4 μg/mL) was 2 µg/mL and the “MIC ATB in combination” value (ECO UFR174, AF2 @ 8 μg/mL) was less than 0.25 µg/mL. For the same compound, the “MIC ATB in combination” value (ECO UFR174, AF3 @ 8 μg/mL) was less than 0.25 µg/mL, the “MIC ATB in combination” value (ECO UFR174, CLA @ 4 μg/mL) was 2 µg/mL and the “MIC ATB in combination” value (ECO UFR175, AF2 @ 8 μg/mL) was less than 0.25 µg/mL. The “MIC ATB in combination” value (ECO UFR175, AF3 @ 8 μg/mL) was “<=0.25 μg/mL”, the “MIC ATB in combination” value (ECO UFR175, CLA @ 4 μg/mL) was 16 µg/mL and the “MIC ATB in combination” value (ECO UFR176, AF2 @ 8 μg/mL) was less than 0.25 µg/mL. For the same compound, the “MIC ATB in combination” value (ECO UFR176, AF3 @ 8 μg/mL) was less than 0.25 µg/mL, the “MIC ATB in combination” value (ECO UFR176, CLA @ 4 μg/mL) was 32 µg/mL and the “MIC ATB in combination” value (ECO UFR184, AF2 @ 8 μg/mL) was less than 0.25 µg/mL. For the same compound, the “MIC ATB in combination” value (ECO UFR184, AF3 @ 8 μg/mL) was less than 0.25 µg/mL, the “MIC ATB in combination” value (ECO UFR184, CLA @ 4 μg/mL) was greater than 128 µg/mL and the “MIC ATB in combination” value (ECO UFR208, AF2 @ 8 μg/mL) was greater than 128 µg/mL. For the same compound, the “MIC ATB in combination” value (ECO UFR208, AF3 @ 8 μg/mL) was greater than 128 µg/mL, the “MIC ATB in combination” value (ECO UFR208, CLA @ 4 μg/mL) was greater than 128 µg/mL and the “MIC ATB in combination” value (ECO UFR209, AF2 @ 8 μg/mL) was less than 0.25 µg/mL. For the same compound, the “MIC ATB in combination” value (ECO UFR209, AF3 @ 8 μg/mL) was less than 0.25 µg/mL, the “MIC ATB in combination” value (ECO UFR209, CLA @ 4 μg/mL) was 1 µg/mL and the “MIC ATB in combination” value (ECO UFR210, AF2 @ 8 μg/mL) was less than 0.25 µg/mL. For the same compound, the “MIC ATB in combination” value (ECO UFR210, AF3 @ 8 μg/mL) was less than 0.25 µg/mL, the “MIC ATB in combination” value (ECO UFR210, CLA @ 4 μg/mL) was 0.5 µg/mL and the “MIC ATB in combination” value (ECO UFR211, AF2 @ 8 μg/mL) was less than 0.25 µg/mL. The “MIC ATB in combination” value (ECO UFR211, AF3 @ 8 μg/mL) was less than 0.25 µg/mL.
